Experiments:
[1] = biological target: C-Raf Raf-1 (truncated), active (Homo sapiens, UniProt P04049, Y340D/Y341D); test: C-Raf kinase inhibition (MAPH assay / IMAP assay); conditions: read-out: Biochemical IC50 C-Raf
Source text: We characterized the in vitro inhibitory activity against protein kinases of compounds of the present invention by determining their IC50 values (see Table 2).
Kinase: C-Raf Raf-1 (truncated), active (Upstate; cat. no. 14-352)
Reaction Temperature: room temperature
Assay Plate: 96 well U bottom plate (Greiner, 650161)
MultiScreen-PH Plate: 96 well MAPH Filter Plates (Millipore, MAPHNOB50)
Filter Washing Solution: 0.75% H3PO4
Scintillation Liquid: Supermix Liquid Scintillator (PerkinElmer, 1200-439)
Negative Control (C−): 100 mM EDTA, no inhibitor
Positive Control (C+): no inhibitor
Reaction Buffer (Final Concentration):
Final Assay Concentrations:
Kinase: Use kinase conc. yielding 10% ATP turnover as determined in titration experiment.
Adenosine 5′-[γ-^33P]triphosphate: 12.5 μCi/ml (Amersham Biosciences, BF1000)
Substrate: Myelin Basic Protein 57.8 μM (Invitrogen, 13228-010)
Pipetting Sequence: • 1) Add 10 μl 4-fold concentrated substrate+4-fold concentrated ATP in 3-fold concentrated reaction buffer to each well of assay plate • 2) Add 10 μl […] concentrated inhibitor in 4% DMSO in H2O to each well except to C− and C+ wells (starting point: final inhibitor concentration 10 μM; IC50 determination based on dilution series) • 3) Add 10 μl 4% DMSO in H2O to C− and C+ wells • 4) Add 10 μl 500 mM EDTA in H2O to C− wells • 5) Add 10 μl 50 μCi/ml adenosine 5′-[γ-^33P]triphosphate in H2O to each well • 6) Add 10 μl […] concentrated kinase in Reaction Buffer to each well • 7) Incubate 1 hr at room temperature • 8) Add 10 μl 50 mM EDTA in H2O to each well except to C− wells • 9) Prepare MAPH plates by adding 200 μl 0.75% H3PO4 to each well • 10) Exhaust 0.75% H3PO4 using Millipore vacuum station • 11) Add 60 μl 0.75% H3PO4 to each well of MAPH filter plate • 12) Transfer 30 μl sample per well from assay plate to corresponding well of MAPH filter plate • 13) Incubate 30 min at room temperature • 14) Wash each well of MAPH filter plates 3× with 200 μl 0.75% H3PO4 using Millipore vacuum station • 15) Add 20 μl scintillation liquid to each well of MAPH filter plate • 16) Seal MAPH filter plate • 17) Store MAPH filter plate 30 min in darkness • 18) Quantify radioactivity using scintillation counter (MicroBeta, Perkin-Elmer)
Reaction Volume: 8.0108 μl
IMAP Incubation Time: 60 min
Assay Plate: 384 well U bottom, PP, black, low volume (Corning, 3676)
Compound Plate: 384 well U bottom, PS (Falcon, 3995)
IMAP Binding Buffer A: Molecular Devices, R7282
IMAP Binding Buffer B: Molecular Devices, R7283
IMAP Binding Reagent: Molecular Devices, R7207
Negative Control (C−): no kinase, no inhibitor
Reation buffer: 20 mM Hepes, pH 7.5 • 1 mM DTT • 10 mM MnCl2 • 0.01% Brij35
Kinase: Kinase conc. yielding 50% substrate turnover as determined in titration experiment • c-Raf (Upstate 14-352)
Substrate: 5F1-SGQLIDSMANSFV-NH2 400 nM (jpt Peptide Technologies GmbH, Berlin, Germany)
IMAP Binding Solution: 75% IMAP Binding Buffer A • 25% IMAP Binding Buffer B • IMAP Binding Reagent 1:800
Pipetting Sequence: • 1) Add 6 μl 1.33-fold concentrated substrate+1.33-fold concentrated ATP in 1-fold concentrated reaction buffer to each well of assay plate • 2) Add 10.8 nl 740-fold concentrated inhibitor in 100% DMSO to each well except to C− and C+ wells using pintool (CyBio, Jena, Germany) (starting point: final inhibitor concentration 10 μM; IC50 determination based on dilution series) • 3) Add 10.8 nl 100% DMSO to C− and C+ wells using pintool • 4) Add 2 μl reaction buffer to C− wells • 5) Add 2 μl 4-fold concentrated kinase in reaction buffer to each well except C− wells • 6) Incubate according to reaction time at room temperature • 7) Add 15 μl IMAP binding solution to each well • 8) Incubate according to IMAP incubation time at room temperature • 9) Measure fluorescence polarization (Analyst GT, Molecular Devices)

[2] = biological target: B-Raf delta1-415 (Homo sapiens, UniProt P15056); test: B-Raf kinase inhibition (MAPH filter plate, 33P-ATP, MEK1 substrate); conditions: read-out: Biochemical IC50 B-Raf
Sequence of B-Raf delta1-415 (P15056 416-766): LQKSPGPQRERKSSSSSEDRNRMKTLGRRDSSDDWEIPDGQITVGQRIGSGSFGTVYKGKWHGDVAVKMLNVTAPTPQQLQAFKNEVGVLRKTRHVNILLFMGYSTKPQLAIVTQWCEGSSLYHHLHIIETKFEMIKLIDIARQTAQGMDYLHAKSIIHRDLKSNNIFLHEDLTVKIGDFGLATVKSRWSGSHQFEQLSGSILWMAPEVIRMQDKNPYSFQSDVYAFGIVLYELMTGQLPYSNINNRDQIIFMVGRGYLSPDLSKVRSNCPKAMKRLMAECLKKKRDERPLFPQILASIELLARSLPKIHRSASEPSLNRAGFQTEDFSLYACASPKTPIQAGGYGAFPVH
Outline: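 IC50 values come from dilution series (top 10 μM) measured by scintillation counting of 33P-labelled MEK1 retained on H3PO4-washed filters. Reactions ran 1 h at room temperature in pH 7.0 Mops buffer with MgCl2, MnCl2 and DTT, using 12.5 μCi/ml [γ-33P]ATP and B-Raf delta1-415 titrated to 50% turnover.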

[3] = tested on: HT-29 tumor cells; test: Anti-proliferative activity, SRB assay; format: cell-based, human; conditions: Homo sapiens, HT-29, 72 h, 72 hours exposure, read-out: CELLULAR IC50 HT-29
Outline: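 IC50 derived from % inhibition relative to DMSO controls, measured by sulforhodamine B binding (OD570) after TCA fixation. Cells (3,000-15,000 per well) were seeded a day ahead, then treated with graded compound concentrations for 72 hours.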

Sequence of C-Raf Raf-1 (truncated), active (P04049 306-648 Y340D/Y341D): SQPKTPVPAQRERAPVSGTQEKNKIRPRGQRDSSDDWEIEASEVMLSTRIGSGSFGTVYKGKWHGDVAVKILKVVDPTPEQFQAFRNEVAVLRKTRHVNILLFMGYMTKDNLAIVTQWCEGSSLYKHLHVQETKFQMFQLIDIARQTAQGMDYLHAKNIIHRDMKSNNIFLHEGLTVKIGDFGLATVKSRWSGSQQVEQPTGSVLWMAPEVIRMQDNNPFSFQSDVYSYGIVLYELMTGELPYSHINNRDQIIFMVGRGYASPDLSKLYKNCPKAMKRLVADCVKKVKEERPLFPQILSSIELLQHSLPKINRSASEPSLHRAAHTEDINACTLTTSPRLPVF

IC50 [1] [nM] | IC50 [2] [nM] | IC50 [3] [nM] | Structure (SMILES)
< 10000 | < 10000 | > 10000 | CC(C)(C)On1c(=O)c(-c2ccccc2Cl)cc2cnc(Nc3ccccc3)nc21 [Compound 63, 6-(2-Chlorophenyl)-8-(1,1-dimethyl)ethyloxy-2-phenylamino-pyrido[2,3-d]pyrimidin-7-one]
< 500 | < 500 | < 1000 | COn1c(=O)c(-c2ccc(Cl)cc2Cl)cc2cnc(Nc3ccc(OCCN(C)C)cc3)nc21 [Compound 16, 6-(2,4-Dichlorophenyl)-8-methoxy-2-(4-(2-dimethylaminoethoxy)-phenylamino)-pyrido[2,3-d]pyrimidin-7-one]
< 100 | < 100 | < 1000 | COn1c(=O)c(-c2c(F)cccc2Cl)cc2cnc(Nc3cccc(CO)c3)nc21 [Compound 15, 6-(2-Chloro-6-fluorophenyl)-8-methoxy-2-(3-hydroxymethylphenylamino)-pyrido[2,3-d]pyrimidin-7-one]
< 100 | < 100 | < 1000 | COn1c(=O)c(-c2c(F)cccc2Cl)cc2cnc(Nc3ccc(N4CCN(C)CC4)cc3)nc21 [Compound 25, 6-(2-Chloro-6-fluorophenyl)-8-methoxy-2-(4-(4-methylpiperazino)-phenylamino)-pyrido[2,3-d]pyrimidin-7-one]
< 100 | < 500 | < 1000 | COCCOn1c(=O)c(-c2c(Cl)cccc2Cl)cc2cnc(Nc3cccc(OC)c3)nc21 [Compound 68, 6-(2,6-Dichlorophenyl)-8-(2-methoxyethyl)oxy-2-(3-methoxyphenyl)amino-pyrido[2,3-d]pyrimidin-7-one]
< 100 | < 100 | < 1000 | COn1c(=O)c(-c2c(Cl)cccc2Cl)cc2cnc(Nc3cccc(CO)c3)nc21 [Compound 1, 6-(2,6-Dichlorophenyl)-2-(3-hydroxymethylphenylamino)-8-methoxy-pyrido[2,3-d]pyrimidin-7-one]
< 100 | > 1000 | < 10000 | COn1c(=O)c(-c2cc(NC(=O)c3ccc(Cl)cc3)ccc2Cl)cc2cnc(Nc3ccccc3)nc21 [Compound 37]
< 100 | < 5000 | > 10000 | COc1ccc(OC)c(-c2cc3cnc(Nc4cccc(CO)c4)nc3n(OC)c2=O)c1 [Compound 44, 6-(2,5-Dimethoxyphenyl)-2-(3-hydroxymethylphenylamino)-8-methoxy-pyrido[2,3-d]pyrimidin-7-one]
< 100 | < 500 | < 10000 | COn1c(=O)c(-c2cc(NC(=O)c3ccccc3)ccc2Cl)cc2cnc(Nc3ccccc3)nc21 [Compound 29]
< 100 | > 1000 | < 10000 | COn1c(=O)c(-c2cc(NC(=O)c3cccnc3)ccc2Cl)cc2cnc(Nc3ccccc3)nc21 [Compound 31]
< 100 | < 100 | < 1000 | COn1c(=O)c(-c2c(C)cccc2C)cc2cnc(Nc3ccc(N4CCN(C)CC4)cc3)nc21 [Compound 38, 6-(2,6-Dimethylphenyl)-8-methoxy-2-(4-(4-methylpiperazino)-phenylamino)-pyrido[2,3-d]pyrimidin-7-one]
< 100 | < 100 | < 1000 | COn1c(=O)c(-c2c(Cl)cccc2Cl)cc2cnc(Nc3cc(C(=O)NCCN(C)C)n(C)c3)nc21 [Compound 67, 6-(2,6-Dichlorophenyl)-2-(5-(2-dimethylaminoethyl)aminocarbonyl-1-methyl-pyrrol-3-yl)-amino-8-methoxy-pyrido[2,3-d]pyrimidin-7-one]
< 100 | < 500 | < 10000 | COn1c(=O)c(-c2c(Cl)cccc2Cl)cc2cnc(N)nc21 [Compound 46, 2-Amino-6-(2,6-dichlorophenyl)-8-methoxy-pyrido[2,3-d]pyrimidin-7-one]
< 100 | < 100 | < 1000 | COc1cccc(Nc2ncc3cc(-c4c(Cl)cccc4Cl)c(=O)n(OC)c3n2)c1 [Compound 3, 6-(2,6-Dichlorophenyl)-8-methoxy-2-(3-methoxyphenylamino)-pyrido[2,3-d]pyrimidin-7-one]
< 100 | > 1000 | < 10000 | COn1c(=O)c(-c2cc(NC(=O)c3cccc(Cl)c3)ccc2Cl)cc2cnc(Nc3ccccc3)nc21 [Compound 36]
< 100 | < 500 | < 10000 | COn1c(=O)c(-c2c(Cl)cccc2Cl)cc2cnc(Nc3cc(CO)ccc3C)nc21 [Compound 45, 6-(2,6-Dichlorophenyl)-2-((2-methyl-5-hydroxymethylphenyl)-amino)-8-methoxy-pyrido[2,3-d]pyrimidin-7-one]
> 1000 | < 500 | < 1000 | CN1CCN(c2ccc(Nc3ncc4cc(-c5c(F)cccc5Cl)c(=O)n(O)c4n3)cc2)CC1 [Compound 241]
< 100 | < 500 | < 1000 | COn1c(=O)c(-c2ccc(Cl)cc2Cl)cc2cnc(Nc3ccc(N4CCN(C)CC4)cc3)nc21 [Compound 19, 6-(2,4-Dichlorophenyl)-8-methoxy-2-(4-(4-methylpiperazino)-phenylamino)-pyrido[2,3-d]pyrimidin-7-one]
< 100 | < 1000 | < 1000 | CC(=O)NCCCOn1c(=O)c(-c2c(Cl)cccc2Cl)cc2cnc(Nc3ccccc3)nc21 [Compound 57, 8-(3-Acetylaminopropyl)oxy-6-(2,6-dichlorophenyl)-2-phenylamino-pyrido[2,3-d]pyrimidin-7-one]
< 1000 | < 1000 | < 1000 | COn1c(=O)c(-c2c(F)cccc2C(F)(F)F)cc2cnc(Nc3ccc(N4CCN(C)CC4)cc3)nc21 [Compound 53, 6-(2-Fluoro-6-trifluoromethyl-phenyl)-8-methoxy-2-(4-(4-methylpiperazino)-phenylamino)-pyrido[2,3-d]pyrimidin-7-one]
< 100 | < 100 | < 1000 | COn1c(=O)c(-c2c(Cl)cccc2Cl)cc2cnc(Nc3ccncc3)nc21 [Compound 13, 6-(2,6-Dichlorophenyl)-8-methoxy-2-(pyrid-4-ylamino)-pyrido[2,3-d]pyrimidin-7-one]

Structure (SMILES) | IC50 [1] [nM] | IC50 [2] [nM] | IC50 [3] [nM]
NCCCCOn1c(=O)c(-c2c(Cl)cccc2Cl)cc2cnc(Nc3cccc(S(N)(=O)=O)c3)nc21 [Compound 40, 8-(4-Aminobutoxy)-6-(2,6-dichlorophenyl)-2-(3-sulfamoylphenylamino)-pyrido[2,3-d]pyrimidin-7-one] | < 100 | < 100 | > 10000
